Measured values from patent US12338484B2, “FRET biosensor for detecting and reporting NAD+/NADH ratio changes” (Sartorius BioAnalytical Instruments, Inc., priority 2022, dated 2025).

Experiments:
Format in all cases: biochemical
[1] = molecular target: T1, Thermus aquaticus T-Rex FRET fusion, initial construct #3, mKOk-Rex(78-211)-Rex(78-189)-cpmEGFP(145/146)-Rex(190-211), SEQ ID NO: 163 (Thermus aquaticus, UniProt Q9X2V5, INS189[…]); experiment: FRET response (emission spectra) of purified initial construct #3 in absence or presence of 40 uM NADH; set-up: key: Good response: Constructs with very clear and robust spectra separation; Poor response: those with noticeable but small spectra separation; No response: those having no spectra separation
T1 construct: His-tag purified from E. coli
Procedure: (§1) 16 initial FRET constructs (See Table 3) were constructed using expression vector pET28c with a T7 promoter and lac operator and expressed in E. coli. Cells were collected and lysed using a commercially-available lysis buffer. Proteins of interest were isolated from the lysates using Ni-NTA magnetic beads. Eluted proteins were subjected to buffer exchange and final protein concentrating. To test performance of the initial FRET constructs, their emission spectra was recorded on a plate reader in absence or presence of 40 uM NADH. Resulting emission spectra with or without the ligand were normalized and overlaid for each construct. Constructs with very clear and robust spectra separation were labeled as having “good response”, those with noticeable but small spectra separation were labeled as having “poor response”, and finally those having no spectra separation were labeled as having “no response”.

[2] = molecular target: Thermus aquaticus T-Rex FRET biosensor construct #14 (Rex(A)-mEGFP-Rex(B)-mKOk, SEQ ID NO: 174), library variant 2-F3, SEQ ID NO: 15 (Thermus aquaticus, UniProt Q9X2V5, E116G/F189I/K117M/K47E/R46D/R58D/S30A/Y98W); experiment: Signal window in bacterial lysates, FRET ratio in presence or absence of 200 uM NADH (Table 2); conditions: clone 2-F3, SEQ ID NO: 15
From the text: (§2) In specific embodiments, the fusion protein comprises the amino acid sequence selected from the group consisting of SEQ ID NO: 13-93, 95-154, and 191-193; the sequences are provided in Table 2 and the examples.
(§3) Protein library DNA was generated following cloning that assembled pieces of DNA that were generated using PCRs with mixtures of primers. DNA was transformed into E. coli, and the first round of protein library expression was done in bacterial colonies on agar plates. The colonies, each expressing different library members, were imaged, and then classified into groups based on their FRET ratio signal. Colonies from different groups were inoculated into 96-deep-well plates for further protein expression in liquid culture. The original construct that was used to generate the library (e.g., construct #14 in Table 2) was also inoculated on the same plates, along with non-expressing bacteria. The latter served as a negative control.

[3] = molecular target: Thermus aquaticus T-Rex FRET biosensor construct #14 (Rex(A)-mEGFP-Rex(B)-mKOk, SEQ ID NO: 174), library variant 4-D10, SEQ ID NO: 17 (Thermus aquaticus, UniProt Q9X2V5, E116G/F189I/K117M/K47E/R46D/R58D/S30A/Y98W); experiment: as above; conditions: clone 4-D10, SEQ ID NO: 17
From the text: as §2, §3

[4] = molecular target: Thermus aquaticus T-Rex FRET biosensor construct #14 (Rex(A)-mEGFP-Rex(B)-mKOk, SEQ ID NO: 174), library variant 3-C8, SEQ ID NO: 14 (Thermus aquaticus, UniProt Q9X2V5, E116G/F189I/K117M/K47E/R46D/R58D/S30A/Y98W); experiment: as above; conditions: clone 3-C8, SEQ ID NO: 14
From the text: as §2, §3

[5] = molecular target: Thermus aquaticus T-Rex FRET biosensor construct #14 (Rex(A)-mEGFP-Rex(B)-mKOk, SEQ ID NO: 174), library variant 1-G8, SEQ ID NO: 16 (Thermus aquaticus, UniProt Q9X2V5, E116G/F189I/K117M/K47E/R46D/R58D/S30A/Y98W); experiment: as above; conditions: clone 1-G8, SEQ ID NO: 16
From the text: as §2, §3

[6] = molecular target: Thermus aquaticus T-Rex FRET biosensor construct #14 (Rex(A)-mEGFP-Rex(B)-mKOk, SEQ ID NO: 174), library variant 1-A7, SEQ ID NO: 20 (Thermus aquaticus, UniProt Q9X2V5, E116G/F189I/K117M/K47E/R46D/R58D/S30A/Y98W); experiment: as above; conditions: clone 1-A7, SEQ ID NO: 20
From the text: as §2, §3

[7] = molecular target: Thermus aquaticus T-Rex FRET biosensor construct #14 (Rex(A)-mEGFP-Rex(B)-mKOk, SEQ ID NO: 174), library variant 4-F1, SEQ ID NO: 18 (Thermus aquaticus, UniProt Q9X2V5, E116G/F189I/K117M/K47E/R46D/R58D/S30A/Y98W); experiment: as above; conditions: clone 4-F1, SEQ ID NO: 18
From the text: as §2, §3

[8] = molecular target: Thermus aquaticus T-Rex FRET biosensor construct #14 (Rex(A)-mEGFP-Rex(B)-mKOk, SEQ ID NO: 174), library variant 4-A2, SEQ ID NO: 19 (Thermus aquaticus, UniProt Q9X2V5, E116G/F189I/K117M/K47E/R46D/R58D/S30A/Y98W); experiment: as above; conditions: clone 4-A2, SEQ ID NO: 19
From the text: as §2, §3

[9] = molecular target: Thermus aquaticus T-Rex FRET fusion, initial construct #12, Rex(A)-cpmEGFP(173/174)-Rex(B)-mKOk, SEQ ID NO: 172 (Thermus aquaticus, UniProt Q9X2V5, E116G/F189I/K117M/K204T/K47E/R46D/R58D/S30A/Y98W); experiment: FRET response (emission spectra) of purified initial construct #12 in absence or presence of 40 uM NADH; set-up: key: Good response: Constructs with very clear and robust spectra separation; Poor response: those with noticeable but small spectra separation; No response: those having no spectra separation
Procedure: as §1

[10] = molecular target: T2, Thermus aquaticus T-Rex FRET fusion, initial construct #8, Rex(78-211)-Rex(78-189)-cpmEGFP(173/174)-Rex(190-211)-mKOk, SEQ ID NO: 168 (Thermus aquaticus, UniProt Q9X2V5, INS189[…]); experiment: FRET response (emission spectra) of purified initial construct #8 in absence or presence of 40 uM NADH; set-up: key: Good response: Constructs with very clear and robust spectra separation; Poor response: those with noticeable but small spectra separation; No response: those having no spectra separation
T2 construct: His-tag purified from E. coli
Procedure: as §1

[11] = molecular target: Thermus aquaticus T-Rex FRET fusion, initial construct #9, mKOk-Rex(A)-cpmEGFP(145/146)-Rex(B), SEQ ID NO: 169 (Thermus aquaticus, UniProt Q9X2V5, E116G/F189I/K117M/K204T/K47E/R46D/R58D/S30A/Y98W); experiment: FRET response (emission spectra) of purified initial construct #9 in absence or presence of 40 uM NADH; set-up: key: Good response: Constructs with very clear and robust spectra separation; Poor response: those with noticeable but small spectra separation; No response: those having no spectra separation
Procedure: as §1

## NC(=O)C1=CN([C@@H]2O[C@H](COP(=O)(O)OP(=O)(O)OC[C@H]3O[C@@H](n4cnc5c(N)ncnc54)[C@H](O)[C@@H]3O)[C@@H](O)[C@H]2O)C=CC1 [NADH]
[1]
  FRET response to NADH: No response
[2]
  Signal window (ex mode), measured in lysates: 0.34
[3]
  Signal window (ex mode), measured in lysates: 0.34
[4]
  Signal window (ex mode), measured in lysates: 0.4
[5]
  Signal window (ex mode), measured in lysates: 0.34
[6]
  Signal window (ex mode), measured in lysates: 0.31
[7]
  Signal window (ex mode), measured in lysates: 0.33
[8]
  Signal window (ex mode), measured in lysates: 0.32
[9]
  FRET response to NADH: Good response
[10]
  FRET response to NADH: No response
[11]
  FRET response to NADH: No response
